Measured values from patent US11925643B2, “Toll-like receptor 4 (TLR4) inhibitors and use thereof” (MOR RESEARCH APPLICATIONS LTD., priority 2018, dated 2024).
No end group written: not given here.

Legend:
IL-1β mRNA = IL-1β mRNA level by RT-qPCR in hypoxic cardiomyocytes; format: cell-based; conditions: hypoxic conditions
Description: Real-time RT-PCR experiments were performed in duplicates on an ABI 7900 instrument (Applied Biosystems™) using Taqman™ Master Mix (Applied Biosystems™). The average threshold cycles (Ct) of the duplicates were used to calculate the relative expression levels of the following genes: TLR4 (Applied Biosystems™ assay primer ID: Mm00569848_m1 Tlr4), TLR2 (assay primer ID: Mm01769726_m1 Tlr2), TNF-α (assay primer ID: Mm00443260_g1 Tnf) and IL-1β (assay primer ID: Mm00434228_m1 II1b) in vitro and in vivo following hypoxia or ischemia, respectively. The reference gene was TBP and the primer used was derived from mouse TATA-box binding protein (Applied Biosystems™ assay primer ID: Mm00446973_m1 Tbp). Amounts of TLR2, TLR4, TNF-α and IL-1β mRNAs in each sample were calculated relative to TBP mRNA, based on the corresponding Cts, as Relative Quantity (RQ) values, and normalized taking as 1 a randomly selected sample of the control group (TBP mRNA). […]
Decoy peptides represented by compounds PM1-PM10 were tested in vitro for their ability to decrease the level of CK and LDH released by stressed cardiomyocytes following exposure to LPS or hypoxic stimulation, and further evaluated for their ability to affect the level of IL-1β and TLR4 mRNA, and expression of IκB and TLR4 proteins, according to the protocols described in Materials and Methods and in Example 5 herein above.

primary cardiomyocytes [1] = experiment: CK and LDH release by primary cardiomyocytes under LPS treatment (sepsis like); format: cell-based, Rat; conditions: LPS treatment; 20 μM
Description: (§1) Rat hearts (1-2 days old) were removed under sterile conditions and washed three times in phosphate-buffered saline (PBS) to remove excess blood cells. The hearts were minced and then gently agitated in RBD (a solution of proteolytic enzymes (Biological Institute, Ness-Ziona, Israel) prepared from fig tree extract, and diluted 1:100 in Ca^2+- and Mg^2+-free PBS) for a few cycles of 10 min each. Dulbecco's modified Eagle's medium (Biological Industries, Kibbutz Beit Haemek, Israel) containing 10% horse serum was added to supernatant suspensions containing the dissociated cells. The mixture was centrifuged at 1400 rpm for 4 min. The supernatant phase was discarded, and the cells were re-suspended. The cell suspension was diluted to 1.0×10^6 cells/ml, unless stated otherwise, and 1.5 ml of the suspension was placed in 35-mm plastic culture dishes collagen- or gelatin-coated, or on coated cover glasses. The cultures were incubated in a humidified atmosphere of 5% CO2 and 95% air at 37° C.
(§2) Primary cardiomyocytes which were obtained by method described above, were treated with exemplary decoy peptides described herein. After 30 minutes of incubation, sepsis like (LPS treatment for 6 hours), or myocardial infarction (MI) like (hypoxia for 3 hours) conditions were imposed to measure the release of CK and LDH to the medium and determine the potential cardioprotective effect of the tested decoy peptides. Cytotoxicity and level of cell damage were assessed by spectrophotometric measurement of lactate dehydrogenase (LDH) and creatine kinase (CK) activities (at 30° C.). Results are presented as CK and LDH release in arbitrary units (a.u.)
(§3) Activity of LDH and CK was determined in the cell-culture medium (25 μl) transferred into 96-well plates, using commercial L-LDH/CK kits (such as those manufactured, e.g., by Sigma-Aldrich, BioVision™ or Thermo Fisher Scientific®).
(§4) Primary cardiomyocytes were treated with peptides and peptidomimetics of SEQ ID NOs:1-7 provided at concentrations ranging from 1 μM to 20 μM. Following 30 minutes of incubation, sepsis like (LPS treatment for 6 hours) or MI like (hypoxia for 3 hours) conditions were induced to determine the potential cardioprotective effect of the tested compounds. Creatine kinase (CK) and lactate dehydrogenase (LDH) activity were assayed to determine the level of cellular damage and cell protection effect. The experimental procedure is described in Materials and Methods above. Results are presented as CK and LDH release in arbitrary units (a.u.).

TLR4 mRNA = TLR4 mRNA level by RT-qPCR in hypoxic cardiomyocytes; format: cell-based; conditions: hypoxic conditions
Description: Real-time RT-PCR experiments were performed in duplicates on an ABI 7900 instrument (Applied Biosystems™) using Taqman™ Master Mix (Applied Biosystems™). The average threshold cycles (Ct) of the duplicates were used to calculate the relative expression levels of the following genes: TLR4 (Applied Biosystems™ assay primer ID: Mm00569848_m1 Tlr4), TLR2 (assay primer ID: Mm01769726_m1 Tlr2), TNF-α (assay primer ID: Mm00443260_g1 Tnf) and IL-1β (assay primer ID: Mm00434228_m1 II1b) in vitro and in vivo following hypoxia or ischemia, respectively. The reference gene was TBP and the primer used was derived from mouse TATA-box binding protein (Applied Biosystems™ assay primer ID: Mm00446973_m1 Tbp). Amounts of TLR2, TLR4, TNF-α and IL-1β mRNAs in each sample were calculated relative to TBP mRNA, based on the corresponding Cts, as Relative Quantity (RQ) values, and normalized taking as 1 a randomly selected sample of the control group (TBP mRNA). Calculation were performed using the Applied Biosystems Analysis™ software (StepOnePlus V2.2.2). All mRNA scores are presented in arbitrary units.
Next, peptidomimetics of SEQ ID NOs:1 and 2 were tested for their ability to affect the expression of TLR4. The level of TLR4 mRNA was measured by real-time reverse transcriptase polymerase chain reaction (RT-qPCR) method as described in Materials and Methods. The possible effect of both compounds on expression levels of TLR2 mRNA was used as a negative control.

primary cardiomyocytes [2] = experiment: CK and LDH release by primary cardiomyocytes under hypoxia (MI like); format: cell-based, Rat; conditions: 20 μM
Description: as §1
Using a vacuum pump, the oxygen rich air was evacuated from an incubator containing plates with cell cultures, and a 100% Argon atmosphere was let in, while maintaining a temperature of 37° C. The cell cultures were washed with PBS twice to remove glucose from the medium. Hypoxic treated cells were cultures in PBS without glucose. These cells lasted for 180 minutes.
as §2, §3, §4

TLR4 signaling = conditions: primary murine macrophages; cited from earlier work
[3] = test system: TLR4-driven inflammatory response; conditions: mice, cited from earlier work

For `Cc1cn(Cc2ccccc2)c(=O)nc1NCCC(C)C` [PM2, 1-benzyl-4-(isopentylamino)-5-methylpyrimidin-2(1H)-one], the “inhibition of IL-1β mRNA production” value (IL-1β mRNA) was 1.3 fold, the CK release (primary cardiomyocytes [1]) was “no significant effect” and the LDH release (primary cardiomyocytes [1]) was “no significant effect”. The “inhibition of TLR4 mRNA production” value (TLR4 mRNA) was 2 fold, the CK release (primary cardiomyocytes [2]) was “significant reduction” and the LDH release (primary cardiomyocytes [2]) was “significant reduction”.

In the case of “IVFAEMPCG (Ac-IVFAEMPCG) [prior art decoy peptide derived from the TRAM TIR domain (Piao et al., 2013); used N-acetylated as positive control]”, the TLR4 signaling (TLR4 signaling) is given as “inhibited”, the “LPS-induced activation of MyD88-dependent and TRIF-dependent cytokines and MAPKs” value [3] is given as “inhibited” and the survival ([3]; lethal LPS dose) is given as “dramatically improving”. For the same compound, the circulating cytokine levels ([3]; sublethal dose of LPS) was “significantly diminishing”.
